# Source: patent US12427151B2, “Compositions and method of treating cancer” (The Regents of the University of California, priority 2017, dated 2025)
# Legend:
# [1] = tested on: GAS NZ131; experiment: MBC determination; type: cell-based, group A Streptococcus; conditions: Streptococcus, 3-log reduction of viable bacteria after 24 hour incubation at 37° C. in half strength MHB in PBS
# Protocol: To determine MBC, bacteria were cultured in TSB (Staphylococcus), THB (Streptococcus) or Nutrient broth (P. aeruginosa and E. coli) by reaching exponential phase (OD600=0.5-0.8). […] After incubation, the number of viable bacteria was measured by counting CFU after spreading 10-fold serial dilutions of bacteria on suitable agar plates. MBC was determined as a 3-log reduction (99.9%) of viable bacteria after 24 hour incubation.
# Antimicrobial activity of 6-HAP in vitro. To examine the specificity of 6-HAP for various bacteria, minimal bactericidal concentrations (MBCs) were determined according to dose-dependent killing curves at 24 hrs of incubation in vitro (Table 1). 6-HAP killed or suppressed growth of several major skin pathogens including GAS (NZ131), group B Streptococcus (GBS) (DK23), methicillin-sensitive S. aureus (ATCC35556), methicillin-resistant S. aureus (MRSA) strains (USA300 and Sanger252), Pseudomonas aeruginosa (P. aeruginosa) (ATCC14213) in vitro. […] S. epidermidis (ATCC12228) was also resistant to 6-HAP.
# [2] = tested on: GAS (NZ131); experiment: BrdU incorporation assay in bacteria; type: cell-based, group A Streptococcus; conditions: 6-HAP 25 μg/mL, 30 or 60 min
# Protocol: (§1) (a) Time course killing of GAS in THB containing 6-HAP (25 μg/mL), mitomycin C (5 μg/mL), or LL-37 (10 μM). At each indicated time point, live GAS in the media was measured by counting CFU on an agar plate. The data represent mean±SE of four individual experiments. (b) Membrane permeability of GAS incubated in THB containing 6-HAP (25 μg/mL), mitomycin C (5 μg/mL) and LL-37 (10 μM) for 1 hr. The bacteria with compromised plasma membranes (Red) can be distinguished from those with intact membranes (Green). (c) BrdU incorporation into nascent DNA of GAS after incubation with 6-HAP (25 μg/mL) or mitomycin C (5 μg/mL) in THB containing BrdU (10 μM) for 30 or 60 min. (d) BrdU incorporation into nascent DNA of S. epidermidis ATCC12228 after incubation with 6-HAP (25 μg/mL) or mitomycin C (5 μg/mL) in THB containing BrdU (10 μM) for 60 min. The data represent mean±SE of five individual experiments (*P<0.05 and **P<0.01 by Student's t-test vs vehicle control). (e-f) Capacity of 6-HAP to block in vitro DNA extension by Klenow fragment polymerase. […] Extension reaction was analyzed on a 20% acrylamide gel by electrophoresis (f). […] GAS survival was measured by counting CFU. […]
# (§2) BrdU incorporation assay. […] BrdU incorporation into nascent DNA was measured in a time-dependent manner using BrdU incorporation assay kit (Roche) according to the manual.
# [3] = tested on: S. epidermidis (ATCC12228); experiment: BrdU incorporation assay in bacteria; type: cell-based; conditions: 6-HAP 25 μg/mL, 60 min
# Protocol: as §1, §2
# [4] = tested on: Klenow fragment (exo) DNA polymerase; experiment: In vitro DNA polymerization assay; type: biochemical; conditions: cell free system, in the presence of 6-HAP
# Protocol: as §1, with “min.” for “min. The data represent mean±SE of five individual experiments (*P<0.05 and **P<0.01 by Student's t-test vs vehicle control). (e-f) Capacity of 6-HAP to block in vitro DNA extension by Klenow fragment polymerase.”
# In vitro DNA polymerization assay. […] Fluorescence was visualized with Oddyssey Imaging System (LI-COR Biosciences, Lincoln, NE).
# We next assessed the effect of 6-HAP on DNA synthesis. […] To directly examine the action of 6-HAP on DNA extension in a cell free system, 25-bp templates and matching 18-bp fluorescence primers were designed to measure DNA extension in vitro by Klenow (exo) DNA polymerase (FIG. 4e).
# [5] = tested on: GAS; experiment: Comparison of antimicrobial activity of natural and synthetic 6-HAP; type: cell-based, group A Streptococcus; conditions: THB overnight, OD600
# Protocol: GAS (1×10^5 CFU/mL) were incubated with indicated concentrations of purified 6-HAP or synthetic 6-HAP in THB overnight. Bacterial growth was monitored by measuring OD600 (relative % of growth index).
# Structural analyses of antibiotic produced by S. epidermidis. High-resolution electrospray (ES)-mass spectrometry analysis of the purified antimicrobial fraction identified a molecule with a mass of 151.0487, predicting a molecular formula of C5H5N5O (calculated: 151.0489) (FIG. 3a). […] Given the chemical formula as C5H5N5O, the structure was predicted as 6-N-hydroxyaminopurine (6-HAP). To confirm this predicted structure we performed a chemical synthesis of 6-HAP. […] In addition, the fragmentation profile of natural compound by electron-impact MS (FIG. 3e) also matched that of synthetic product (FIG. 3f).
smiles,measurement,setting,value
"ONc1ncnc2nc[nH]c12 [6-HAP, 6-N-hydroxyaminopurine]",MBC,[1],0.156 µg/mL
same,BrdU incorporation into the genomic DNA of GAS,[2],Significant suppression
same,BrdU incorporation in S. epidermidis,[3],did not affect
same,"DNA extension, template requiring adenosine (X=T)",[4],lack of extension
same,"DNA extension, template requiring cytosine (X=G)",[4],synthesis of the expected extended DNA product
same,"antimicrobial activity against GAS, synthetic versus natural product",[5],comparable to that of natural product
